Source: PubChem BioAssay (NCI)
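Step 1: Grow cells in 96-well plates. Step 2: Expose to compound for 48 hours at 5 concentrations. Step 3: Interpolate endpoints linearly; if unreached, use highest concentration. The concentration for full growth arrest is given as TGI.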

Assays:
Assay in all cases: inhibition of tumour cell growth, NCI panel, 48 h
HCT-15 colon = system: HCT-15 colon
NCI-H522 lung = system: NCI-H522 lung
T-47D breast = system: T-47D breast
MDA-N = system: MDA-N
KM12 colon = system: KM12 colon
A549 NSCLC = system: A549 NSCLC
SK-MEL-28 melanoma = system: SK-MEL-28 melanoma
SK-OV-3 ovarian = system: SK-OV-3 ovarian
SK-MEL-5 melanoma = system: SK-MEL-5 melanoma
MDA-MB-231 breast = system: MDA-MB-231 breast
OVCAR-3 ovarian = system: OVCAR-3 ovarian
LOX IMVI melanoma = system: LOX IMVI melanoma
EKVX NSCLC = system: EKVX NSCLC
BT-549 breast = system: BT-549 breast
HCT-116 colon = system: HCT-116 colon
M14 melanoma = system: M14 melanoma
SF-295 CNS = system: SF-295 CNS
RPMI-8226 leukemia = system: RPMI-8226 leukemia
UO-31 renal = system: UO-31 renal
HOP-62 NSCLC = system: HOP-62 NSCLC
IGROV1 ovarian = system: IGROV1 ovarian
NCI-H23 lung = system: NCI-H23 lung
OVCAR-4 ovarian = system: OVCAR-4 ovarian
HL-60(TB) leukemia = system: HL-60(TB) leukemia
NCI-H226 lung = system: NCI-H226 lung
SF-539 CNS = system: SF-539 CNS
A498 renal = system: A498 renal
NCI/ADR-RES ovarian = system: NCI/ADR-RES ovarian
SK-MEL-2 melanoma = system: SK-MEL-2 melanoma
MCF7 breast = system: MCF7 breast
SW-620 colon = system: SW-620 colon
CAKI-1 renal = system: CAKI-1 renal
K-562 leukemia = system: K-562 leukemia
MOLT-4 leukemia = system: MOLT-4 leukemia
UACC-257 melanoma = system: UACC-257 melanoma
SR leukemia = system: SR leukemia
CCRF-CEM leukemia = system: CCRF-CEM leukemia
COLO 205 colon = system: COLO 205 colon
ACHN renal = system: ACHN renal
PC-3 prostate = system: PC-3 prostate
HOP-92 NSCLC = system: HOP-92 NSCLC
SN12C renal = system: SN12C renal
UACC-62 melanoma = system: UACC-62 melanoma
SF-268 CNS = system: SF-268 CNS
OVCAR-8 ovarian = system: OVCAR-8 ovarian
MDA-MB-435 = system: MDA-MB-435
TK-10 renal = system: TK-10 renal
HT29 colon = system: HT29 colon
HCC-2998 colon = system: HCC-2998 colon
786-0 renal = system: 786-0 renal
OVCAR-5 ovarian = system: OVCAR-5 ovarian
SNB-19 CNS = system: SNB-19 CNS
DU-145 prostate = system: DU-145 prostate
U251 CNS = system: U251 CNS
MALME-3M melanoma = system: MALME-3M melanoma
SNB-75 CNS = system: SNB-75 CNS
NCI-H460 lung = system: NCI-H460 lung

## COC(=O)c1ccc(NC(=O)c2cc3c(cc2Br)OCO3)o1
HCT-15 colon
  TGI: > 100 µM
NCI-H522 lung
  TGI: > 100 µM
T-47D breast
  TGI: > 100 µM
MDA-N
  TGI: > 100 µM
KM12 colon
  TGI: > 100 µM
A549 NSCLC
  TGI: > 100 µM
SK-MEL-28 melanoma
  TGI: > 100 µM
SK-OV-3 ovarian
  TGI: > 100 µM
SK-MEL-5 melanoma
  TGI: > 100 µM
MDA-MB-231 breast
  TGI: > 100 µM
OVCAR-3 ovarian
  TGI: > 100 µM
LOX IMVI melanoma
  TGI: > 100 µM
EKVX NSCLC
  TGI: > 100 µM
BT-549 breast
  TGI: > 100 µM
HCT-116 colon
  TGI: > 100 µM
M14 melanoma
  TGI: > 100 µM
SF-295 CNS
  TGI: > 100 µM
RPMI-8226 leukemia
  TGI: > 100 µM
UO-31 renal
  TGI: > 100 µM
HOP-62 NSCLC
  TGI: > 100 µM
IGROV1 ovarian
  TGI: > 100 µM
NCI-H23 lung
  TGI: > 100 µM
OVCAR-4 ovarian
  TGI: > 100 µM
HL-60(TB) leukemia
  TGI: > 100 µM
NCI-H226 lung
  TGI: > 100 µM
SF-539 CNS
  TGI: > 100 µM
A498 renal
  TGI: > 100 µM
NCI/ADR-RES ovarian
  TGI: > 100 µM
SK-MEL-2 melanoma
  TGI: > 100 µM
MCF7 breast
  TGI: > 100 µM
SW-620 colon
  TGI: > 100 µM
CAKI-1 renal
  TGI: > 100 µM
K-562 leukemia
  TGI: > 100 µM
MOLT-4 leukemia
  TGI: > 100 µM
UACC-257 melanoma
  TGI: > 100 µM
SR leukemia
  TGI: > 100 µM
CCRF-CEM leukemia
  TGI: > 100 µM
COLO 205 colon
  TGI: > 100 µM
ACHN renal
  TGI: > 100 µM
PC-3 prostate
  TGI: > 100 µM
HOP-92 NSCLC
  TGI: > 100 µM
SN12C renal
  TGI: > 100 µM
UACC-62 melanoma
  TGI: > 100 µM
SF-268 CNS
  TGI: 69.8 µM
OVCAR-8 ovarian
  TGI: > 100 µM
MDA-MB-435
  TGI: > 100 µM
TK-10 renal
  TGI: > 100 µM
HT29 colon
  TGI: > 100 µM
HCC-2998 colon
  TGI: > 100 µM
786-0 renal
  TGI: > 100 µM
OVCAR-5 ovarian
  TGI: > 100 µM
SNB-19 CNS
  TGI: > 100 µM
DU-145 prostate
  TGI: > 100 µM
U251 CNS
  TGI: > 100 µM

## C=C=C(C)C(=O)N(C(C)C)C(C)C
HCT-15 colon
  TGI: > 100 µM
T-47D breast
  TGI: > 100 µM
MDA-N
  TGI: > 100 µM
A549 NSCLC
  TGI: > 100 µM
SK-MEL-28 melanoma
  TGI: > 100 µM
SK-OV-3 ovarian
  TGI: > 100 µM
SK-MEL-5 melanoma
  TGI: > 100 µM
MDA-MB-231 breast
  TGI: > 100 µM
OVCAR-3 ovarian
  TGI: > 100 µM
LOX IMVI melanoma
  TGI: > 100 µM
MALME-3M melanoma
  TGI: > 100 µM
EKVX NSCLC
  TGI: > 100 µM
BT-549 breast
  TGI: > 100 µM
HCT-116 colon
  TGI: > 100 µM
M14 melanoma
  TGI: > 100 µM
SF-295 CNS
  TGI: > 100 µM
RPMI-8226 leukemia
  TGI: > 100 µM
UO-31 renal
  TGI: > 100 µM
HOP-62 NSCLC
  TGI: > 100 µM
IGROV1 ovarian
  TGI: > 100 µM
NCI-H23 lung
  TGI: > 100 µM
OVCAR-4 ovarian
  TGI: > 100 µM
HL-60(TB) leukemia
  TGI: > 100 µM
NCI-H226 lung
  TGI: > 100 µM
A498 renal
  TGI: > 100 µM
NCI/ADR-RES ovarian
  TGI: > 100 µM
MCF7 breast
  TGI: > 100 µM
SW-620 colon
  TGI: > 100 µM
SNB-75 CNS
  TGI: > 100 µM
K-562 leukemia
  TGI: > 100 µM
MOLT-4 leukemia
  TGI: > 100 µM
UACC-257 melanoma
  TGI: > 100 µM
SR leukemia
  TGI: > 100 µM
CCRF-CEM leukemia
  TGI: > 100 µM
NCI-H460 lung
  TGI: > 100 µM
COLO 205 colon
  TGI: > 100 µM
ACHN renal
  TGI: > 100 µM
PC-3 prostate
  TGI: > 100 µM
HOP-92 NSCLC
  TGI: > 100 µM
SN12C renal
  TGI: > 100 µM
UACC-62 melanoma
  TGI: > 100 µM
SF-268 CNS
  TGI: > 100 µM
OVCAR-8 ovarian
  TGI: > 100 µM
MDA-MB-435
  TGI: > 100 µM
TK-10 renal
  TGI: > 100 µM
HT29 colon
  TGI: > 100 µM
HCC-2998 colon
  TGI: > 100 µM
786-0 renal
  TGI: > 100 µM
OVCAR-5 ovarian
  TGI: > 100 µM
SNB-19 CNS
  TGI: > 100 µM
DU-145 prostate
  TGI: > 100 µM
U251 CNS
  TGI: > 100 µM
